How the values were obtained:
[1] = Displacement of [3H]NTI from Hartley guinea pig delta opioid receptor by liquid scintillation counter; parameters: species or system Cavia porcellus
Mu-type opioid receptor = Mu-type opioid receptor (Cavia porcellus, UniProt P97266); experiment: Displacement of [3H]DAMGO from Hartley guinea pig mu opioid receptor by liquid scintillation counter
[2] = target: Kappa-type opioid receptor (Cavia porcellus, UniProt P41144); experiment: Displacement of […] from Hartley guinea pig kappa opioid receptor by liquid scintillation counter
Sequence of Kappa-type opioid receptor (P41144 whole entry): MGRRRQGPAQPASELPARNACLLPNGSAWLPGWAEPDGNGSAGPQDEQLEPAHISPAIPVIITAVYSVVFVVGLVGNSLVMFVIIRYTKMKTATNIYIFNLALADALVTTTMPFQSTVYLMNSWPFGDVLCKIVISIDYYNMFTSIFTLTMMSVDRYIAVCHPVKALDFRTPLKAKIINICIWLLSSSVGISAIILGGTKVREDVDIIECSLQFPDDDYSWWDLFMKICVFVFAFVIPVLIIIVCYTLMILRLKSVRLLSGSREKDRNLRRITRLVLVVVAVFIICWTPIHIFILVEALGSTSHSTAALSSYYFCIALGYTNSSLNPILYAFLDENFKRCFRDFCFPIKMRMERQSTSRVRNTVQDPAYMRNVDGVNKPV

Sequence of Mu-type opioid receptor (P97266 whole entry): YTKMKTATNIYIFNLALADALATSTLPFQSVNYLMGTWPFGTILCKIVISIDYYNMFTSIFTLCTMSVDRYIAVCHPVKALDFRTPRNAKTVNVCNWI

| Compound | Ki [1] | Ki (Mu-type opioid receptor) | Ki [2] |
| --- | --- | --- | --- |
| CN1CC[C@]23c4c5ccc(O)c4O[C@H]2C(=O)C2(Cc4ccccc4C2)C[C@@]3(O)[C@H]1C5 [SPIROINDANYLOXYMORPHONE] | 1.4 nM | – | – |
| O=C1c2ccccc2N[C@@]12C[C@]13CCN(CC4CC4)[C@H](Cc4ccc(O)cc41)[C@]3(O)C2 | 2.9 nM | 0.75 nM | 13.4 nM |
